Source: patent US20230303483A1, “USE OF STROBILURIN TYPE COMPOUNDS FOR COMBATING PHYTOPATHOGENIC FUNGI CONTAINING AN AMINO ACID SUBSTITUTION F129L IN THE MITOCHONDRIAL CYTOCHROME B PROTEIN CONFERRING RESISTANCE TO QO […]” (BASF SE, priority 2020, published 2023)

Experiments:
[1] = tested on: Phakopsora pachyrhizi (strain containing the amino acid substitution F129L in the mitochondrial cytochrome b protein); experiment: Use example 2: protective control of soybean rust on soybeans (PHAKPA P6), inoculation six days after spraying; assay type: in vivo; conditions: % diseased leaf area on soybean, 16 ppm spray, inoculation six days after treatment, untreated controls usually >85 %
Description: (§1) The compound was dissolved in a mixture of acetone and/or dimethylsulfoxide and the wetting agent/emulsifier Wettol, which is based on ethoxylated alkylphenoles, in a ratio (volume) solvent-emulsifier of 99 to 1 to give a total volume of 5 ml. Subsequently, water was added to total volume of 100 ml. This stock solution was then diluted with the described solvent-emulsifier-water mixture to the final concentration given in the table below.
Use example 2. Protective control of soybean rust on soybeans caused by Phakopsora pachyrhizi (PHAKPA P6)
(§2) Leaves of potted soybean seedlings were sprayed to run-off with the previously described spray solution, containing the concentration of active ingredient as described below. The plants were allowed to air-dry. The trial plants were cultivated for six days in a greenhouse chamber at 23-27° C. and a relative humidity between 60 and 80 %. Then the plants were inoculated with spores of Phakopsora pachyrhizi. The strain used contains the amino acid substitution F129L in the mitochondrial cytochrome b protein conferring resistance to Qo inhibitors. To ensure the success the artificial inoculation, the plants were transferred to a humid chamber with a relative humidity of about 95 % and 23 to 27° C. for 24 hr. The trial plants were cultivated for up to 14 days in a greenhouse chamber at 23 to 27° C. and a relative humidity between 60 and 80 %. The extent of fungal attack on the leaves was visually assessed as % diseased leaf area, the disease level of untreated controls was usually higher than 85 %.
(§3) All test results below are given for the control of phytopathogenic fungi containing the amino acid substitution F129L in the mitochondrial cytochrome b protein conferring resistance to Qo inhibitors.

[2] = tested on: Phakopsora pachyrhizi (strain containing the amino acid substitution F129L in the mitochondrial cytochrome b protein); experiment: Use example 1: protective control of soybean rust on soybeans (PHAKPA P2), inoculation 2 days after spraying; assay type: in vivo; conditions: % diseased leaf area on soybean, 16 ppm spray, inoculation 2 days after treatment, untreated controls usually >85 %
Description: as §1
Use example 1. Protective control of soybean rust on soybeans caused by Phakopsora pachyrhizi (PHAKPA P2)
as §2, with “active ingredient or their mixture as described” for “active ingredient as described”, “cultivated for 2 days in” for “cultivated for six days in”, “% and 20 to 24°” for “% and 23 to 27°”, “20 to 24° C. for” for “23 to 27° C. for”
as §3

| Compound | PHAKPA Disease level (%) P6 at 16 ppm [1] | PHAKPA Disease level (%) P2 at 16 ppm [2] |
| --- | --- | --- |
| CNC(=O)/C(=N/OC)c1ccccc1CO/N=C(\C)C#Cc1c(Cl)cccc1Cl [Example 107] | 15% | 27% |
| CO/N=C(/C(=O)OC)c1ccccc1CO/N=C(\C)C#Cc1ccccc1C(F)(F)F [Example 67] | 60% | 50% |
| CO/N=C(/C(=O)OC)c1ccccc1CO/N=C(\C)C#Cc1ccc2c(c1)OC(F)(F)O2 [Example 85] | 83% | 100% |
| CO/N=C(/C(=O)OC)c1cccc(C)c1CO/N=C(\C)C#Cc1cccc(OC(F)(F)F)c1 [Example 28] | 0% | 0% |
| CNC(=O)/C(=N/OC)c1ccccc1CO/N=C(\C)C#Cc1ccc(Oc2ccc(F)cc2)cc1 [Example 111] | 23% | 33% |
| CO/N=C(/C(=O)OC)c1ccccc1CO/N=C(\C)C#Cc1ccc(C(F)(F)F)cc1 [Example 65] | 70% | 80% |
| CNC(=O)/C(=N/OC)c1cccc(C)c1CO/N=C(\C)C#Cc1cccc(F)c1 [Example 38] | 1% | 0% |
| CNC(=O)/C(=N/OC)c1cccc(C)c1CO/N=C(\C)C#Cc1cccc(Cl)c1 [Example 77] | 0% | 0% |
| CO/N=C(/C(=O)OC)c1ccccc1CO/N=C(\C)C#Cc1ccc(Cl)cc1C(C)C [Example 109] | 12% | 11% |
| CNC(=O)/C(=N/OC)c1cccc(C)c1CO/N=C(\C)C#Cc1ccccc1F [Example 63] | 0% | 0% |
| CO/N=C(/C(=O)OC)c1ccccc1CO/N=C(\C)C#Cc1ccc(OC2CC2)cc1 [Example 102] | 63% | 80% |
| CNC(=O)/C(=N/OC)c1ccccc1CO/N=C(\C)C#Cc1ccc(OC(F)(F)F)cc1 [Example 11, (2E)-2-Methoxyimino-N-methyl-2-[2-[[(E)-[1-methyl-3-[4-(trifluoromethoxy)phenyl]-prop-2-ynylidene]amino]oxymethyl]phenyl]acetamide] | 67% | 53% |
| CNC(=O)/C(=N/OC)c1cccc(C)c1CO/N=C(\C)C#Cc1ccc(Br)cc1 [Example 59] | 28% | 13% |
| CO/N=C(/C(=O)OC)c1cccc(C)c1CO/N=C(\C)C#Cc1ccc(OC(F)(F)F)cc1 [Example 22, methyl (2E)-2-methoxyimino-2-[3-methyl-2-[[(E)-[1-methyl-3-[4-(trifluoromethoxy)-phenyl]prop-2-ynylidene]amino]oxymethyl]phenyl]acetate] | 97% | 93% |
| CO/C=C(/C(=O)OC)c1cccc(C)c1CO/N=C(\C)C#Cc1ccc(F)cc1 [Example 70] | 0% | 0% |
| CNC(=O)/C(=N/OC)c1ccccc1CO/N=C(\C)C#Cc1ccc(Br)cc1 [Example 55] | 40% | 23% |
| CO/N=C(/C(=O)OC)c1cccc(C)c1CO/N=C(\C)C#Cc1ccccc1C [Example 23] | 0% | 0% |
| CO/N=C(/C(=O)OC)c1cccc(C)c1CO/N=C(\C)C#Cc1ccccc1Cl [Example 75] | 40% | 22% |
| CO/N=C(/C(=O)OC)c1ccccc1CO/N=C(\C)C#Cc1cccc(C)c1 [Example 43] | 27% | 40% |

| Compound | PHAKPA Disease level (%) P6 at 16 ppm [1] | PHAKPA Disease level (%) P2 at 16 ppm [2] |
| --- | --- | --- |
| CO/N=C(/C(=O)OC)c1ccccc1CO/N=C(\C)C#Cc1cccc(F)c1 [Example 35] | 25% | 32% |
| CNC(=O)/C(=N/OC)c1ccccc1CO/N=C(\C)C#Cc1ccc(Cl)cc1C1CC1 [Example 86] | 18% | 5% |
| CO/N=C(/C(=O)OC)c1ccccc1CO/N=C(\C)C#Cc1ccccc1Cl [Example 74] | 47% | 42% |
| CNC(=O)/C(=N/OC)c1cccc(C)c1CO/N=C(\C)C#Cc1ccccc1Cl [Example 78] | 0% | 0% |
| CNC(=O)/C(=N/OC)c1ccccc1CO/N=C(\C)C#Cc1ccc(Cl)cc1 [Example 4] | 7% | 3% |
| CNC(=O)/C(=N/OC)c1ccccc1CO/N=C(\C)C#Cc1cccc(OC(F)(F)F)c1 [Example 53] | 0% | 0% |
| CO/N=C(/C(=O)OC)c1cccc(C)c1CO/N=C(\C)C#Cc1ccc(Cl)cc1 [Example 32] | 35% | 12% |
| CNC(=O)/C(=N/OC)c1ccccc1CO/N=C(\C)C#Cc1ccc(OC(C)C)cc1 [Example 88] | 60% | 77% |
| CNC(=O)/C(=N/OC)c1cccc(C)c1CO/N=C(\C)C#Cc1ccc(OC(F)(F)F)cc1 [Example 21, (2E)-2-Methoxyimino-N-methyl-2-[3-methyl-2-[[(E)-[1-methyl-3-[4-(trifluoromethoxy)phenyl]prop-2-ynylidene]amino]oxymethyl]phenyl]acetamide] | 33% | 25% |
| CO/N=C(/C(=O)OC)c1cccc(C)c1CO/N=C(\C)C#Cc1ccc(F)cc1 [Example 34] | 0% | 0% |
| CO/C=C(/C(=O)OC)c1cccc(C)c1CO/N=C(\C)C#Cc1ccc(F)c(C(=O)OC)c1 [Example 122] | 60% | 73% |
| CNC(=O)/C(=N/OC)c1ccccc1CO/N=C(/C#Cc1ccc(Cl)cc1)COC [Example 112] | 25% | 38% |
| CO/N=C(/C(=O)OC)c1cccc(C)c1CO/N=C(\C)C#Cc1cccc(F)c1 [Example 36] | 9% | 4% |
| CO/N=C(/C(=O)OC)c1cccc(C)c1CO/N=C(\C)C#Cc1ccccc1F [Example 61] | 8% | 8% |
| CNC(=O)/C(=N/OC)c1ccccc1CO/N=C(\C)C#Cc1ccccc1 [Example 2, (2E)-2-Methoxyimino-N-methyl-2-[2-[[(E)-(1-methyl-3-phenyl-prop-2-ynylidene)-amino]oxymethyl]phenyl]acetamide] | 90% | 97% |
| CO/N=C(/C(=O)OC)c1ccccc1CO/N=C(\C)C#Cc1cccc(C(F)(F)F)c1 [Example 41] | 67% | 50% |
| CNC(=O)/C(=N/OC)c1ccccc1CO/N=C(\C)C#Cc1cccc(F)c1 [Example 37] | 8% | 6% |
| CNC(=O)/C(=N/OC)c1cccc(C)c1CO/N=C(\C)C#Cc1ccc(Cl)cc1 [Example 31] | 5% | 0% |
